# Results taken from US10064862B2, “Antiviral axin stabilizer” (priority 2014, dated 2018).
# “Also recorded” adds a separate entry of the source.
# Key:
# ISRE activity = experiment: ISRE_Luc dual-luciferase assay in OE-Axin1 HEK293 cells pretreated with inhibitors; type: cell-based, human; settings: 10 μM inhibitor, OE-Axin1, MOI=2 for 8 hours
# [1] = tested on: Axin1-stimulated IFN response; experiment: Axin1-stimulated IFN and ISG mRNA in OE-Axin1 HEK293 cells pretreated with inhibitors; type: cell-based, human; settings: OE-Axin1, MOI=2
# [2] = tested on: H1N1 influenza A/PR/8/34 virus; experiment: Viral gene mRNA in OE-Axin1 HEK293 cells pretreated with inhibitors; type: cell-based
# [3] = tested on: H1N1 influenza A/PR/8/34 virus; experiment: organism not typed; type: cell-based
# Axin1 [4] = experiment: Axin1 stabilization in A549 cells (immunostaining, Western blot); type: cell-based, human
# [5] = tested on: H1N1 influenza A/PR/8/34 virus; experiment: Lethal influenza virus challenge in mice (lung virus titer, survival); type: in vivo, mouse; settings: for survival rate after lethal virus challenge: mice, 1,000 pfu, RN-1 50 mg/kg orally daily, -1 to 2 or 4 dpi
# Method: Mice were challenged intranasally with a lethal dose (1,000 pfu) of H1N1 influenza A/PR/8/34 virus. […] Control animals received vehicle alone. […] (C) Virus titer in the homogenized infected lungs at 2 dpi was measured by TCID50 assay in MDCK cells and normalized to total protein amount. […] Data shown are means±s.e.m. and tested for statistical significance by Student's t-test. (D) Survival rate. […] Mantel-Cox χ2 test on Kaplan-Meier survival data was used to compare the survival rate between groups.
# Male C57BL/6N mice (6-8 week old) were challenged intranasally with a lethal dose (1,000 pfu) of influenza virus A/PR/8/34 H1N1 under anesthesia. […] Control animals were given vehicle alone in the same formulation. All animals were observed daily for body weight loss and clinical signs of disease such as ruffled fur, inactivity and difficulty in breathing until 21 days post infection.
# MDCK cells in 96-well plates were infected with serial dilutions (10^−1 to 10^−7) of virus samples in serum-free complete EMEM containing 1 μg/ml TPCK-treated trypsin for 1 hour. The cells were re-fed with the same medium for 4 days. TCID50 values (median tissue culture infective dose) were calculated by the method of Reed and Muench.
# The results were analyzed by one-way ANOVA followed with posthoc Tukey's test for multiple comparisons of control and treatment groups, or Student's t-test using GraphPad Prism (version 6). Survival rates between groups were analyzed by Mantel-Cox χ2 test on Kaplan-Meier probability estimates using GraphPad Prism. All results were reported as mean±s.e.m.
# [6] = tested on: nonO/p54(nrb), SFPQ, and hnRNP M; type: cell-based, human; settings: A549 cells, 20 μM RN-1 24 hours pretreatment, MOI=2
# Axin1 [7] = type: in vivo, mouse; settings: oral administration of RN-1 for 24 hours, 50 mg/kg
# [8] = tested on: H1N1 influenza A/PR/8/34 virus; type: cell-based
# [9] = tested on: IFN and IFN-stimulated gene (ISG) expression; experiment: IFNα1 and MX1 mRNA by Real-time PCR in primary mouse alveolar epithelial cells; type: cell-based
# herpes simplex virus = settings: previously reported; cited from earlier work
# A549 cells = settings: all the concentrations tested (30-80,000 nM), MTT assay
# [10] = tested on: influenza virus A/Puerto Rico/8/1934 H1N1; type: in vivo, mouse; settings: mice, 250 pfu, 50 μl 10× Wnt3a_CM intranasally 4 hours before and 2 days post infection, lungs day 5
# [11] = tested on: H1N1 influenza A/PR/8/34 virus; type: cell-based; settings: E10 cells, 250 ng/ml rhWnt3a or 50% Wnt3a_CM 24 hours pretreatment, MOI=2 for 18 hours
# [12] = 10 μM inhibitor 6 hours pretreatment
# [13] = primary mouse alveolar epithelial cells during virus infection, 20 μM RN-1, 12 hpi
molecule,measurement,setting,value
COc1cc2c(cc1OC)CN(C(=O)/C=C/c1c(-c3ccccc3)n(C)c3ncccc13)CC2 [SIS3],Axin1-stimulated ISRE activity,ISRE activity,the same inhibitory effect
same,"Axin1-stimulated IFN mRNA expression (IFNβ1, IFNα1, IFNα7, IFNλ1)",[1]; [12],the same inhibitory effect on Axin1-elevated anti-viral machinery except IFNβ1 synthesis (FIG. 7A) and MX1 expression (FIG. 7E); also recorded: only inhibited Axin1-induced expression of IFNα but not IFNβ1
same,"Axin1-stimulated ISGs expression (OAS1, MX1, IP10)",[1]; [12],the same inhibitory effect on Axin1-elevated anti-viral machinery except IFNβ1 synthesis (FIG. 7A) and MX1 expression (FIG. 7E)
same,Axin1-regulated Type I and Type III IFN synthesis,[1]; 10 μM inhibitor,the same inhibitory effect in both scenarios
same,effect on Axin1-mediated attenuation of influenza virus replication (viral gene mRNA),[2],relived Axin1-mediated attenuation of influenza virus replication
"Oc1nc(-c2ccc(C(F)(F)F)cc2)nc2c1CSCC2 [RN-1, 3,5,7,8-Tetrahydro-2-[4-(trifluoromethyl)phenyl]-4H-thiopyrano[4,3-d]pyrimidin-4-one]",maximum inhibition of influenza virus replication,[3],over 99%
same,virus replication (virus titer in supernatants),[3],significantly attenuated
same,EC50,"[3]; A549, 24 h, read-out: EC50 of attenuation of influenza virus replication (virus titers in culture media)",419 nM
same,Axin1 protein during influenza virus infection,Axin1 [4],Axin1 was not degraded
same,survival rate after lethal virus challenge,[5],dramatically improved
same,survival rate after lethal virus challenge,[5]; listed as XAV939,protected animals from lethal influenza virus challenge
same,influenza virus replication in vivo (virus titer in infected lungs at 2 dpi),"[5]; mouse, in vivo, po",significantly attenuated
same,"degradation of nonO/p54(nrb), SFPQ and hnRNP M",[6],stimulated the degradation of all three proteins
same,Axin1 protein in the mouse lung,Axin1 [7],successfully stabilized Axin1
same,virus replication (virus titer),[8],notably inhibited; also recorded: significantly inhibited virus replication
same,mRNA expression of IFNα1,[9]; [13],increased the mRNA expression
same,mRNA expression of the ISG MX1,[9]; [13],increased the mRNA expression
same,baseline IFN gene expression,[9]; uninfected cells,had no effects
same,herpes simplex virus replication,herpes simplex virus,inhibit herpes simplex virus replication
same,cell viability,A549 cells,did not affect cell viability
"Wnt3a: activator of Wnt/β-catenin signaling, given as rhWnt3a or Wnt3a_CM (protein, UniProt P56704 19-352, looked up) Protein Wnt-3a: SYPIWWSLAVGPQYSSLGSQPILCASIPGLVPKQLRFCRNYVEIMPSVAEGIKIGIQECQHQFRGRRWNCTTVHDSLAIFGPVLDKATRESAFVHAIASAGVAFAVTRSCAEGTAAICGCSSRHQGSPGKGWKWGGCSEDIEFGGMVSREFADARENRPDARSAMNRHNNEAGRQAIASHMHLKCKCHGLSGSCEVKTCWWSQPDFRAIGDFLKDKYDSASEMVVEKHRESRGWVETLRPRYTYFKVPTERDLVYYEASPNFCEPNPETGSFGTRDRTCNVSSHGIDGCDLLCCGRGHNARAERRREKCRCVFHWCCYVSCQECTRVYDVHTCK",virus replication in vivo (viral gene mRNA in lungs),[10],dramatically promotes virus replication
same,virus replication in vitro (viral gene mRNA),[11],dramatically promotes virus replication
